{"source": "ChEMBL document CHEMBL1141328", "about": "“Biologically active aspidofractinine, rhazinilam, akuammiline, and vincorine alkaloids from Kopsia” (J Nat Prod, 2007)", "assay_type_in_all_cases": "functional, cell-based", "key": {"KB [1]": {"tested_on": "KB", "experiment": "Cytotoxicity against vincristine-resistant human KB cells"}, "[2]": {"experiment": "Cytotoxicity against vincristine-resistant human KB/VJ300 cells"}, "[3]": {"experiment": "Cytotoxicity against vincristine-resistant human KB/VJ300 cells in presence of 0.121 uM vincristine"}, "KB [4]": {"tested_on": "KB", "experiment": "Cytotoxicity against human KB cells"}, "[5]": {"experiment": "Cytotoxicity against human KB/VJ300 cells"}}, "data": [{"smiles": "COC(=O)[C@H]1C[C@@]23CCCN4CC[C@@]5(c6ccccc6N[C@]15CC2)[C@@H]43", "values": [{"measurement": "IC50", "setting": "KB [1]", "value": "> 25", "unit": "µg/mL"}, {"measurement": "IC50", "setting": "[2]", "value": "> 25", "unit": "µg/mL"}, {"measurement": "IC50", "setting": "[3]", "value": "> 25", "unit": "µg/mL"}]}, {"smiles": "C/C=C1/CN2CC[C@]34C(=Nc5ccccc53)[C@@H]2C[C@H]1C4(C(=O)OC)C(=O)OC(C)=O", "note": "(stereo partly specified)", "values": [{"measurement": "IC50", "setting": "KB [1]", "value": "> 25", "unit": "µg/mL"}, {"measurement": "IC50", "setting": "[2]", "value": "> 25", "unit": "µg/mL"}, {"measurement": "IC50", "setting": "[3]", "value": "> 25", "unit": "µg/mL"}]}, {"smiles": "C/C=C1/CN(C=O)[C@H]2C[C@H]1C(C(=O)OC)[C@@]13CCO[C@@]21Nc1ccccc13", "note": "(stereo partly specified) [ASPIDOPHYLLINE A]", "values": [{"measurement": "IC50", "setting": "KB [1]", "value": "> 25", "unit": "µg/mL"}, {"measurement": "IC50", "setting": "[2]", "value": "> 25", "unit": "µg/mL"}, {"measurement": "IC50", "setting": "[3]", "value": 29.1, "unit": "µM"}]}, {"smiles": "COC(=O)N1c2ccccc2[C@@]23CCN4CC=C[C@]5(CC[C@]12C(O)(C(=O)OC)C5O)[C@H]43", "note": "(stereo partly specified) [KOPSILOSCINE A]", "values": [{"measurement": "IC50", "setting": "KB [1]", "value": 45800, "unit": "nM"}, {"measurement": "IC50", "setting": "[2]", "value": 42.3, "unit": "µM"}, {"measurement": "IC50", "setting": "[3]", "value": 8.9, "unit": "µM"}]}, {"smiles": "COC(=O)N1c2ccccc2[C@@]23CCN4CCC[C@]5(CC[C@]12[C@](O)(C(=O)OC)[C@H]5O)[C@H]43", "note": "[KOPSILOSCINE B]", "values": [{"measurement": "IC50", "setting": "KB [1]", "value": "> 25", "unit": "µg/mL"}, {"measurement": "IC50", "setting": "[2]", "value": "> 25", "unit": "µg/mL"}, {"measurement": "IC50", "setting": "[3]", "value": 11.7, "unit": "µM"}]}, {"smiles": "COC(=O)N1c2ccccc2[C@@]23CCN4CC[C@H](O)[C@@]5(CC[C@]12[C@](O)(C(=O)OC)[C@H]5O)[C@H]43", "note": "[KOPSILOSCINE C]", "values": [{"measurement": "IC50", "setting": "KB [1]", "value": "> 25", "unit": "µg/mL"}, {"measurement": "IC50", "setting": "[2]", "value": "> 25", "unit": "µg/mL"}, {"measurement": "IC50", "setting": "[3]", "value": "> 25", "unit": "µg/mL"}]}, {"smiles": "COC(=O)N1c2ccc(OC)cc2[C@@]23CCN4CCC[C@]5(CC[C@]12[C@](O)(C(=O)OC)[C@H]5O)[C@H]43", "note": "[KOPSILOSCINE D]", "values": [{"measurement": "IC50", "setting": "KB [1]", "value": "> 25", "unit": "µg/mL"}, {"measurement": "IC50", "setting": "[2]", "value": "> 25", "unit": "µg/mL"}, {"measurement": "IC50", "setting": "[3]", "value": 25.1, "unit": "µM"}]}, {"smiles": "COC(=O)N1c2ccc(OC)cc2[C@@]23CCN4CC[C@H](O)[C@@]5(CC[C@]12[C@](O)(C(=O)OC)[C@H]5O)[C@H]43", "note": "[KOPSILOSCINE E]", "values": [{"measurement": "IC50", "setting": "KB [1]", "value": "> 25", "unit": "µg/mL"}, {"measurement": "IC50", "setting": "[2]", "value": "> 25", "unit": "µg/mL"}, {"measurement": "IC50", "setting": "[3]", "value": "> 25", "unit": "µg/mL"}]}, {"smiles": "COC(=O)N1c2c(OC)cccc2[C@@]23CCN4CC[C@H](O)[C@@]5(CC[C@]12[C@](O)(C(=O)OC)[C@H]5O)[C@H]43", "note": "[KOPSILOSCINE F]", "values": [{"measurement": "IC50", "setting": "KB [1]", "value": "> 25", "unit": "µg/mL"}, {"measurement": "IC50", "setting": "[2]", "value": "> 25", "unit": "µg/mL"}, {"measurement": "IC50", "setting": "[3]", "value": "> 25", "unit": "µg/mL"}]}, {"smiles": "CC[C@]12CCCn3c(C=O)cc(c31)-c1ccccc1NC(=O)CC2", "note": "[RHAZINAL]", "values": [{"measurement": "IC50", "setting": "KB [1]", "value": 730, "unit": "nM"}, {"measurement": "IC50", "setting": "[2]", "value": 0.76, "unit": "µM"}, {"measurement": "IC50", "setting": "[3]", "value": 0.93, "unit": "µM"}]}, {"smiles": "CC[C@@]12CCC(=O)Nc3ccccc3-c3ccn(c31)C(=O)CC2", "note": "[RHAZINICINE]", "values": [{"measurement": "IC50", "setting": "KB [1]", "value": 4060, "unit": "nM"}, {"measurement": "IC50", "setting": "[2]", "value": 8.12, "unit": "µM"}, {"measurement": "IC50", "setting": "[3]", "value": 6.01, "unit": "µM"}]}, {"smiles": "CC[C@]12CCCn3ccc(c31)-c1ccccc1NC(=O)CC2", "note": "[RHAZINILAM]", "values": [{"measurement": "IC50", "setting": "KB [1]", "value": 650, "unit": "nM"}, {"measurement": "IC50", "setting": "[2]", "value": 0.83, "unit": "µM"}, {"measurement": "IC50", "setting": "[3]", "value": 1.16, "unit": "µM"}]}, {"smiles": "C/C=C1/CN2CC[C@@]34c5ccccc5C[C@@]23CC[C@H]1C4(CO)C(=O)OC", "note": "(stereo partly specified) [VINCOPHYLLINE]", "values": [{"measurement": "IC50", "setting": "KB [1]", "value": "> 25", "unit": "µg/mL"}, {"measurement": "IC50", "setting": "[2]", "value": "> 25", "unit": "µg/mL"}, {"measurement": "IC50", "setting": "[3]", "value": "> 25", "unit": "µg/mL"}]}, {"smiles": "CC[C@]1(O)C[C@H]2CN(CCc3c([nH]c4ccccc34)[C@@](C(=O)OC)(c3cc4c(cc3OC)N(C=O)[C@H]3[C@@](O)(C(=O)OC)[C@H](OC(C)=O)[C@]5(CC)C=CCN6CC[C@]43[C@@H]65)C2)C1", "note": "[VINCRISTINE]", "values": [{"measurement": "IC50", "setting": "KB [4]", "value": 2.8, "unit": "nM"}, {"measurement": "IC50", "setting": "[5]", "value": 1200, "unit": "nM"}]}]}
